Values of other authors in patent publication US6951654B2, “Intravaginal drug delivery devices for the administration of an antimicrobial agent” (Galen (Chemicals) Limited, priority 2001, dated 2005).

Settings: at 20° C.; Merck Index

Cc1ncc([N+](=O)[O-])n1CCO [metronidazole, 2-methyl-5-nitro-1H-imidazole-1-ethanol]
solubility in water: 1 g per 100 ml
